For orientation: IC50 means the point on the concentration scale where inhibition reaches its midpoint. Usually melting point stands for the temperature of the solid-liquid transition.

Data set [1] deals with telomeric G-quadruplex DNA sequence d[AG3(T2AG3)3] (SEQ ID NO: 1). Briefly: CD titration of compounds into human telomeric G-quadruplex DNA (induced CD). Also noted: key to Induced CD (no exciton): ++: Relative strength of the induced CD is indicated by the number of (+) marks; +++: Relative strength of the induced CD is indicated by the number of (+) marks; ++++: Relative strength of the induced CD is indicated by the number of (+) marks. The conditions noted are these: for Induced CD (exciton) / Induced CD (no exciton): G-Quadruplex Affinity. In kind it is binding. An excerpt:
The oligonucleotides d[AG3(T2AG3)3] (SEQ ID NO: 1), d[AG3TG4AG3TG4A] (SEQ ID NO: 2), d[G4(T4G4)3] (SEQ ID NO: 3), d[(T2G4)4] (SEQ ID NO: 4), d[(GC)7] (SEQ ID NO: 5), d[[…]] (SEQ ID NO: 6), d[G2T2G2TGTG2T2G2] (SEQ ID NO: 7), d[[…]] (SEQ ID NO: 8), d[[…]] (SEQ ID NO: 9), d[[…]] (SEQ ID NO: 10), d[[…]] (SEQ ID NO: 11), d[TTAGGGT] (SEQ ID NO: 12), and d[TGGGGT] (SEQ ID NO: 13) were purchased with HPLC purification from Midland Certified Reagent Company (The Midland Certified Reagent Company, Inc., Midland, Tex., USA). The concentration of each DNA sample was determined spectrophotometrically at 260 nm using the nearest neighbor extinction coefficient.
Stock solutions of individual dicationic polyaryl compounds were prepared in double distilled water and diluted to working concentrations immediately before use with buffer. All measurements were performed at 20° C. in a 10 mM HEPES buffer (pH 7.4) containing 3 mM EDTA and 50 mM KCl, NaCl, or LiCl. Absorbance spectra were obtained on a Varian Cary 300 BIO UV-visible spectrophotometer (Varian, Inc., Palo Alto, Calif., United States of America) in a quartz cell with a 1 cm pathlength. CD spectra were recorded using a Jasco J-810 spectrapolarimeter (Jasco, Inc., Easton, Md., United States of America) in a 1-cm cell using an instrument scanning speed of 50 nm/min with a response time of 1 s. The spectra were averaged over four scans. A buffer baseline scan was collected in the same cuvette and subtracted from the average scan for each sample. Appropriate amounts of dicationic compound stock solution or DNA were added sequentially to increase the molar ratio.
When an achiral ligand binds tightly to a chiral host, such as DNA, a CD signal is induced in the wavelength region corresponding to the absorbance of the ligand. […] An additional negative band centered at 395 nm overlaps with the higher energy exciton band. […] Restriction of the rotational and translational freedom of the two molecules of the dimer relative to each other will cause an increase in the rotational strength of the induced CD band, resulting in a large ellipticity. See Allenmark, S., Chirality, 15, 409-422 (2003).
Some compounds appeared to bind to the telomeric G-quadruplex DNA sequence d[AG3(T2AG3)3] […] Relative strength of the induced CD is indicated by the number of (+) marks.

For data set [2], the system named is Plasmodium falciparum (P. f.). Briefly: In vitro antiprotozoal activity against P. f. In kind it is cell-based. The note with it: read-out: P.f. (IC50). Here is the method: (§1) In vitro antiprotozoal activities were measured following established protocols. […] E., et al., Bioorg.
Data set [3] concerns Trypanosoma brucei rhodesiense (T. b. r.). Briefly: In vitro antiprotozoal activity against T. b. r. The format is cell-based. How it is done:
as §1

Data set [4] deals with STIB 900 strain of Trypanosoma brucei rhodesiense (T. b. r.). Briefly: In vivo T. b. r. STIB 900 mouse model. The conditions noted are these: for In Vivo T.b.r. survival time: observation up to day 60; for In Vivo T.b.r. cures: mice cured / mice infected, days 3-6 post-infection. How it is done: Groups of four mice were infected intraperitoneally with 2×10^5 bloodstream forms of T. b. r. STIB 900 which originates from a patient in Tanzania. On days 3, 4, 5, and 6 post-infection the experimental groups were treated with the drugs either by the intraperitoneal or for prodrugs by the oral route. Usually the highest tolerated dose was used which was determined in a pretoxicological experiment. Parasitemia of the mice was checked daily up to day 14 post-infection and thereafter 2 times per week up to day 60. One group of mice was not treated and acted as control. For relapsing mice, the day of death was recorded and the survival time determined.

SMILES strings stand for the structures. Counter-ions that a name gives are not always drawn. Like-named read-outs stand apart in the source and are kept apart here.

Turning to `c1cc(-c2ccc(-c3ccc(C4=NCCN4)o3)o2)oc1C1=NCCN1` [Compound 49], the “exciton splitting in CD spectra (in words)” value (“exciton splitting” for short) in data set [1] is “induced exciton splitting”. The “Induced CD (exciton)” value in data set [1] is listed as “++”. For the same compound, the half-maximal inhibitory concentration (IC50) in data set [2] (in vitro) is 93 nM; in data set [3], 793 nM.
`N=C(N)c1ccnc(-c2ccc(-c3ccc(-c4cc(C(=N)N)ccn4)s3)s2)c1` [Compound 26b, 5,5′-Bis-(4-amidino-2-pyridyl)-2,2′-bithiophene] registered a melting point of over 300 °C.
`N=C(N)c1ccc(-c2ccc(-c3ccc(C(=N)N)cc3)o2)cc1` [furamidine, reference compound]: the “In Vivo T.b.r. survival time” value in data set [4] (5 mg/kg ip) turned out to be 46.5 days.
Turning to `N=C(N)c1ccc2nc(-c3ccc(-c4ccc(C(=N)N)o4)o3)[nH]c2c1` [Compound 45], in data set [1], the “Induced CD (no exciton)” value is reported as “++”. Besides, the IC50 was 92 nM in data set [2] (in vitro) and 102 nM in data set [3].
As for `N=C(N)c1ccc(-c2ccc(-c3nc4ccc(C(=N)N)cc4[nH]3)o2)cc1` [Compound 47], the “Induced CD (no exciton)” value in data set [1] is “+++”. The IC50 in data set [2] (in vitro) was found to be 96 nM; in data set [3], 122 nM. Further, the “In Vivo T.b.r. cures” value in data set [4] (20 mg/kg ip) is 1/4. Besides, in data set [4] (20 mg/kg ip), the “In Vivo T.b.r. survival time” value was over 27.75 days.
For the compound `N=C(N)c1ccc(-c2ccc(-c3ccc(-c4ccc(C(=N)N)cc4)s3)s2)cc1` [Compound 26a, 5,5′-Bis-(4-amidinophenyl)-2,2′-bithiophene], the melting point was over 300 °C.
As to `N=C(N)c1ccc(-c2ccc(-c3ccc(C(=N)N)o3)cc2)cc1` [Compound 51], in data set [1], the “exciton splitting” value is recorded as “induced exciton splitting” and the “Induced CD (exciton)” value is “+”. The IC50 in data set [2] (in vitro) is 1 nM. The compound further came in with an IC50 in data set [3] of 5 nM.
Consider `CC1=CC(C(=N)N)=CN2C=C(c3ccc(-c4ccc(C(=N)N)cc4)o3)NC12` (centres unmarked) [Compound 53], for which, in data set [1], the “Induced CD (no exciton)” value is “+++”. Also, the concentration for half-maximal inhibition (IC50) in data set [2] (in vitro) came to 88 nM. Inhibition in data set [3] was half-maximal at 9 nM (IC50). Also, in data set [4] (5 mg/kg ip), the “In Vivo T.b.r. cures” value is 4/4 and the “In Vivo T.b.r. survival time” value was over 60 days.
Take `c1cc(-c2ccc(-c3nc4ccc(C5=NCCN5)cc4[nH]3)o2)ccc1C1=NCCN1` [Compound 48]: the “Induced CD (no exciton)” value in data set [1] is “++++”.
For `N=C(N)c1ccc(-c2ccc(-c3ccc(-c4ccc(C(=N)N)cn4)o3)o2)nc1` [Compound 22, 5,5′-Bis-(5-amidino-2-pyridyl)-2,2′-bifuran], the melting point is over 300 °C.
Consider `c1ccc2[nH]c(-c3ccc(-c4ccc(C5=NCCN5)cc4)o3)nc2c1` [Compound 50], for which the “Induced CD (no exciton)” value in data set [1] is “+++”.
For the compound `N=C(N)c1ccc(-c2ccc(-c3ccc(-c4ccc(C(=N)N)cc4)o3)o2)cc1` [Compound 17, 5,5′-bis-(4-Amidinophenyl)-2,2′-bifuran hydrochloride salt], in data set [1], the “exciton splitting” value is “induced exciton splitting” and the “Induced CD (exciton)” value is “++++”. For the same compound, in data set [2], the IC50 is 20 nM. For the same compound, in data set [4] (10 mg/kg ip), the “In Vivo T.b.r. cures” value was 0/4 and the “In Vivo T.b.r. survival time” value came to 22 days.
In turn, `N=C(N)c1ccnc(-c2ccc(-c3ccc(-c4cc(C(=N)N)ccn4)[se]3)[se]2)c1` returned a melting point of over 300 °C.
For `N=C(N)c1ccc2nc(-c3ccc(-c4ccc(C(=N)N)c(F)c4)o3)[nH]c2c1` [Compound 52], the “Induced CD (no exciton)” value in data set [1] was “+++”. Further, the figures for the half-inhibitory concentration (IC50) in data set [2] (in vitro) and in data set [3] were 31 nM and 52.5 nM, respectively. The “In Vivo T.b.r. cures” value in data set [4] (20 mg/kg ip) is on record as 2/4. For the same compound, in data set [4] (20 mg/kg ip), the “In Vivo T.b.r. survival time” value is over 52 days.
In the case of `COc1ccc(-c2nc3ccc(-c4nc5ccc(C(=N)N)cc5[nH]4)cc3[nH]2)cc1` [Compound 46], in data set [1], the “Induced CD (no exciton)” value is reported as “++++”. Further, the IC50 in data set [2] (in vitro) came out at 29 nM; in data set [3] it was 16 nM. Also, the “In Vivo T.b.r. cures” value in data set [4] (5 mg/kg ip) is recorded as 0/4. The “In Vivo T.b.r. survival time” value in data set [4] (5 mg/kg ip) came out at 14.75 days.
Compound `N=C(N)c1ccc(-c2ccc(-c3ccc(-c4ccc(C(=N)N)cc4)[se]3)[se]2)cc1` returned a melting point of over 300 °C.
